Reference: publication PMC8863381 (Journal of Enzyme Inhibition and Medicinal Chemistry, 2022)
Where two headings read alike, the source gives them in different places.

Experiments:
hCA XII = hCA XII (Homo sapiens, UniProt O43570); assay: stopped flow CO2 hydrase assay, hCA XII; format: biochemical; conditions: for Selectivity ratio I/XII: KI hCA I / KI hCA XII; for Selectivity ratio II/XII: KI hCA II / KI hCA XII
hCA I = hCA I (Homo sapiens, UniProt P00915); assay: stopped flow CO2 hydrase assay, hCA I; format: biochemical
Sequence of hCA I (P00915 whole entry): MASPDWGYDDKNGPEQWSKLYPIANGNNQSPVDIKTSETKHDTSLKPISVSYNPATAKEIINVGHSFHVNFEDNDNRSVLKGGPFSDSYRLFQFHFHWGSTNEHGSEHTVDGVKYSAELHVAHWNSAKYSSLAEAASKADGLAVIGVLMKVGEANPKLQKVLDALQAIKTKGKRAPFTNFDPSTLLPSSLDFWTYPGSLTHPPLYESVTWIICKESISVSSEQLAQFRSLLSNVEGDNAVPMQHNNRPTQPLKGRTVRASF

hCA IX = hCA IX (Homo sapiens, UniProt Q16790); assay: biochemical; conditions: for Selectivity ratio I/IX: KI hCA I / KI hCA IX; for Selectivity ratio II/IX: KI hCA II / KI hCA IX
hCA II = hCA II (Homo sapiens, UniProt P00918); assay: stopped flow CO2 hydrase assay, hCA II; format: biochemical
A549 lung cancer cells = assay: SRB cell viability assay, A549; format: cell-based, human; conditions: for IC50: Homo sapiens, A549, 72 h, read-out: IC50 A549; for Selectivity index A549: normal HSF versus A549
[1] = system: normal human skin fibroblast cell line HSF; assay: SRB cell viability assay, HSF normal cells; format: cell-based; conditions: 72 h, read-out: IC50 HSF
[2] = system: MCF-7 breast cancer cell line; assay: SRB cell viability assay, MCF-7; format: cell-based, human; conditions: for IC50: Homo sapiens, MCF7, 72 h, read-out: IC50 MCF-7; for Selectivity index MCF-7: normal HSF versus MCF-7
[3] = KI hCA XII, 15 min preincubation, mean from 3 different assays
[4] = Log KI hCA XII (experimental), log of KI in nM, compounds of this paper
[5] = KI hCA IX, 15 min preincubation, mean from 3 different assays
[6] = log KI hCA IX (experimental), log of KI in nM, compounds of this paper
[7] = log of KI in nM, compounds of this paper
[8] = read-out: KI hCA XII, 15 min preincubation, mean from 3 different assays
[9] = read-out: KI hCA I, 15 min preincubation, mean from 3 different assays
[10] = read-out: KI hCA IX, 15 min preincubation, mean from 3 different assays
[11] = read-out: KI hCA II, 15 min preincubation, mean from 3 different assays

Sequence of hCA XII (O43570 25-354): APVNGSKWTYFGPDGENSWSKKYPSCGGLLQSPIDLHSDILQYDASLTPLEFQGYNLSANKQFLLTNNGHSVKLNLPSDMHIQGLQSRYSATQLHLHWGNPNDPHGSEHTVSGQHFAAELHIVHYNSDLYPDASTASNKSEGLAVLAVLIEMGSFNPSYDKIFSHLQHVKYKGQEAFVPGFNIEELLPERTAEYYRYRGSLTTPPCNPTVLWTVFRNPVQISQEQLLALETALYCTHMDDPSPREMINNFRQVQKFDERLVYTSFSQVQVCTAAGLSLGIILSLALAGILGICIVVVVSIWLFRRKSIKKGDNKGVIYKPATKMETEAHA

| Selectivity ratio I/XII (hCA XII) | Selectivity ratio II/XII (hCA XII) | Ki (hCA XII; [3]) [nM] | Ki (hCA XII; [4]) [nM] | Ki (hCA I) [nM] | Selectivity ratio I/IX (hCA IX) | Selectivity ratio II/IX (hCA IX) | Ki (hCA IX; [5]) [nM] | Ki (hCA IX; [6]) [nM] | Ki (hCA II) [nM] | IC50 (A549 lung cancer cells) [nM] | IC50 [2] [nM] | Compound | IC50 [1] [nM] | also measured |
| --- | --- | --- | --- | --- | --- | --- | --- | --- | --- | --- | --- | --- | --- | --- |
| 5.823 | 3.937 | 754 | 753 | 4390 | 0.819 | 0.554 | 5360 | 5360 | 2970 | – | – | NS(=O)(=O)c1ccc(NCC(=O)NN=C2C(=O)N(CC(=O)Nc3ccccc3Cl)c3ccccc32)cc1 [4f, N-(2-Chlorophenyl)-2–(2-oxo-3–(2-(2–(4-sulfamoylphenylamino)acetyl)hydrazono)indolin-1-yl)acetamide] | – | – |
| 1.029 | 0.320 | – | – | – | 3.596 | 1.119 | – | – | – | – | – | N-(3-Bromophenyl)-2–(2-oxo-3–(2-(2–(4-sulfamoylphenylamino)acetyl)hydrazono) indolin-1-yl)acetamide [4c] | – | Log KI hCA XII (experimental) (hCA XII; [7]): 3.359; Ki (hCA XII; [8]): 2280 nM; Ki (hCA I; [9]): 2350 nM; log KI hCA IX (experimental) (hCA IX; [7]): 2.816; Ki (hCA IX; [10]): 654 nM; Ki (hCA II; [11]): 732 nM |
| 1.245 | 0.092 | 612 | 612 | 762 | 13.392 | 0.991 | 56.9 | 57 | 56.4 | 5900 | > 100000 | NS(=O)(=O)c1ccc(NN=C2C(=O)N(CC(=O)Nc3ccc(Br)cc3)c3ccccc32)cc1 [3c, N-(4-Bromophenyl)-2–(2-oxo-3–(2-(4-sulfamoylphenyl)hydrazono)indolin-1-yl)acetamide] | > 100000 | Selectivity index A549 (A549 lung cancer cells): > 16.94 |
| 1.412 | 0.076 | – | – | – | 14.824 | 0.797 | – | – | – | – | – | 2–(2-Oxo-3–(2-(2–(4-sulfamoylphenylamino)acetyl)hydrazono)indolin-1-yl)-N-m-tolylacetamide [4d] | – | Log KI hCA XII (experimental) (hCA XII; [7]): 3.78; Ki (hCA XII; [8]): 6020 nM; Ki (hCA I; [9]): 8510 nM; log KI hCA IX (experimental) (hCA IX; [7]): 2.759; Ki (hCA IX; [10]): 574 nM; Ki (hCA II; [11]): 458 nM |
| 0.683 | 0.118 | 6790 | – | 4640 | 5.741 | 0.995 | 808 | 807 | 804 | – | – | NS(=O)(=O)c1ccc(NCC(=O)NN=C2C(=O)N(CC(=O)Nc3ccccc3)c3ccccc32)cc1 [4a, 2–(2-Oxo-3–(2-(2–(4-sulfamoylphenylamino)acetyl)hydrazono)indolin-1-yl)-N-phenylacetamide] | – | – |
| 1.670 | 0.909 | 5050 | 5050 | 8430 | 2.149 | 1.169 | 3920 | 3930 | 4590 | – | – | NS(=O)(=O)c1ccc(NCC(=O)NN=C2C(=O)N(CC(=O)Nc3ccc(Cl)cc3)c3ccccc32)cc1 [4b, N-(4-Chlorophenyl)-2–(2-oxo-3–(2-(2–(4-sulfamoylphenylamino)acetyl)hydrazono)indolin-1-yl)acetamide] | – | – |
| 6.122 | 4.416 | – | – | – | 2.957 | 2.133 | – | – | – | – | – | N-(3-Methoxyphenyl)-2–(2-oxo-3–(2-(2–(4-sulfamoylphenylamino)acetyl) hydrazono)indolin-1-yl)acetamide [4e] | – | Log KI hCA XII (experimental) (hCA XII; [7]): 3.182; Ki (hCA XII; [8]): 1520 nM; Ki (hCA I; [9]): 9320 nM; log KI hCA IX (experimental) (hCA IX; [7]): 3.498; Ki (hCA IX; [10]): 3150 nM; Ki (hCA II; [11]): 6720 nM |
| – | – | – | – | – | – | – | – | – | – | 190 | 630 | COc1cccc2c1C(=O)c1c(O)c3c(c(O)c1C2=O)C[C@@](O)(C(=O)CO)C[C@@H]3O[C@H]1C[C@H](N)[C@H](O)[C@H](C)O1 [Doxorubicin, reference compound] | 220 | Selectivity index A549 (A549 lung cancer cells): 1.157; Selectivity index MCF-7 [2]: 0.349 |
| 7.221 | 2.373 | 843 | 843 | 6090 | 0.829 | 0.272 | 7340 | 7330 | 2000 | – | – | NS(=O)(=O)c1ccc(NCC(=O)NN=C2C(=O)N(CC(=O)Nc3ccccc3Br)c3ccccc32)cc1 [4g, N-(2-Bromophenyl)-2–(2-oxo-3–(2-(2–(4-sulfamoylphenylamino)acetyl)hydrazono)indolin-1-yl)acetamide] | – | – |
| 5.701 | 0.742 | 7.91 | 8 | 45.1 | 0.673 | 0.087 | 67 | 67 | 5.87 | > 100000 | > 100000 | NS(=O)(=O)c1ccc(NC(=O)CN2C(=O)C(=O)c3ccccc32)cc1 [2h, 2–(2,3-Dioxoindolin-1-yl)-N-(4-sulfamoylphenyl)acetamide] | > 100000 | cytotoxic activity against A549 (A549 lung cancer cells): no cytotoxic activity; cytotoxic activity against MCF-7 [2]: no cytotoxic activity |
| 1.088 | 0.071 | 3650 | 3650 | 3970 | 18.384 | 1.203 | 216 | 216 | 260 | – | – | NS(=O)(=O)c1ccc(NN=C2C(=O)N(CC(=O)Nc3ccccc3)c3ccccc32)cc1 [3a, 2–(2-Oxo-3–(2-(4-sulfamoylphenyl)hydrazono)indolin-1-yl)-N-phenylacetamide] | – | – |
| 0.923 | 0.112 | 710 | 710 | 656 | 7.672 | 0.934 | 85.5 | 86.1 | 79.9 | 5120 | 869 | Cc1ccc(NC(=O)CN2C(=O)C(=NNc3ccc(S(N)(=O)=O)cc3)c3ccccc32)cc1 [3d, 2–(2-Oxo-3–(2-(4-sulfamoylphenyl)hydrazono)indolin-1-yl)-N-p-tolylacetamide] | 1460 | Selectivity index A549 (A549 lung cancer cells): 0.28; Selectivity index MCF-7 [2]: 1.68 |
| 1.881 | 0.953 | 474 | 474 | 892 | 7.252 | 3.674 | 123 | 123 | 452 | – | – | NS(=O)(=O)c1ccc(NN=C2C(=O)N(CC(=O)Nc3ccc(Cl)cc3)c3ccccc32)cc1 [3b, N-(4-Chlorophenyl)-2–(2-oxo-3–(2-(4-sulfamoylphenyl)hydrazono)indolin-1-yl)acetamide] | – | – |
